Measurements as given in patent publication US12673084B2, “Compositions and methods for combinatorial drug discovery in nanoliter droplets” (The Broad Institute, Inc., priority 2017, dated 2026).
Starred links: 1 amine or outer side, 2 acyl side, 3 side chain; linkers in the order of their positions; H or OH if unused. Non-standard residues stand in square brackets, D forms with d. Residues, ends and D or L forms follow the SMILES beside them. Groups on a side chain read outwards from the residue. *: point of attachment. Ethylenediamine = C(CN[*:2])N[*:1]; Hyp = O=C(O)[C@@H]1C[C@@H](O)CN1; Phg = N[C@H](C(=O)O)c1ccccc1; CO = O=C([*:1])[*:2]; Bn = c1ccc(C*)cc1

What was measured:
[1] = biological target: Rac (Homo sapiens, UniProt P63000); settings: cited from earlier work
[2] = test system: E. coli K-12 MG1655; assay: Antibiotic potentiation primary screen in nanoliter droplet microwell array (GFP growth, Bliss score); type: cell-based, Escherichia coli; settings: for Primary screening prediction of synergy with tetracycline: compound 100 μM x tetracycline; for Primary screening call, pilot phase: pilot phase of screen; for Interaction between Tedizolid and Pasireotide (relative GFP): each 100 μM, same microwell array, FIG. 34
Method: To perform the antibiotic potentiation screen, each microwell chip received droplets containing a total of 64 input conditions, with 32 held constant across all chips, and 32 that vary on each chip (FIG. 3F). The first 32, held fixed, consisted of 30 antibiotic conditions (10 antibiotics×3 concentrations, no cells), and 2 media controls (no cells). The second 32 consisted of 1-2 positive controls (sulbactam 20 μM, + cells; or erythromycin 5 μM, + cells), 1-2 negative blank controls (+ cells), 2-4 media controls (+ cells), and 24-28 variable compounds (100 μM, + cells). All conditions were in cation-adjusted Mueller Hinton broth media, 2% DMSO (all concentrations reported are final concentrations).
This setup allowed the screen to be performed in a divide-and-conquer format. The repurposing compound library is composed of 4,160 compounds across 52 96-well plates (80 compounds per plate, with controls in column 1 and 12). Each 96-well plate was divided into 3 groups of 32, each run on a separate chip but pooled with the same set of antibiotics-carrying droplets.
E. coli K-12 MG1655 with plasmid-mediated constitutive expression of GFP was prepared as described above, and added to all conditions described as “+ cells” just prior to emulsification. After loading, imaging, and merging, microwell arrays were incubated at 37° C. (static), and then later imaged again to measure growth by GFP fluorescence.
To estimate synergy between compounds and antibiotics, the Bliss Independence metric was used.
The net growth inhibition for antibiotic A from microwells carrying an antibiotic A (no cells) droplet, and a media (+ cells) droplet were estimated. The net growth inhibition of a screening compound from microwells carrying compound B (+ cells) droplet, and a media (no cells) droplet were also estimated. All growth values were normalized to microwells containing a pair of media (+ cells) and media (no cells) droplets, and estimated synergy using the Bliss Independence metric. Since each antibiotic was present at 3 concentrations, a metric was summed for the compound across each of the 3 conditions to yield a final metric called “Bliss Score.” Compounds with net growth inhibition exceeding 80% were removed from analysis.
To estimate the uncertainty in the Bliss Score measurement, all microwells in the array were bootstrap resampled (100 iterations) to the number of counted for each pair of inputs and recomputed Bliss Scores to estimate a sampling distribution and standard error.

[3] = test system: recombinant, homomeric GluR1 and GluR3 receptors; settings: cited from earlier work
[4] = test system: Native AMPA/kainate receptors, pyramidal neurons; settings: cited from earlier work
[5] = test system: Native AMPA/kainate receptors, interneurons; settings: cited from earlier work
[6] = biological target: T1, receptors containing edited GluR2 subunits (Homo sapiens, UniProt P42262, Q607R); settings: 100 microM compound; n=5 oocytes; Vh −80 mV; cited from earlier work
T1 construct: host or cells: Xenopus oocytes expressing recombinant receptors

[7] = 416 COPD patients; dry-powder inhaler; cited from earlier work
[8] = year-long trial; cited from earlier work
[9] = 12 weeks, cited from earlier work
[10] = cited from earlier work
[11] = biological target: somatostatin receptor 5 (Homo sapiens, UniProt P35346); settings: cited from earlier work
[12] = test system: P. aeruginosa; assay: Checkerboard drug interaction assay ampicillin x sulbactam, 96-well broth culture vs microdroplet platform; type: cell-based, Pseudomonas aeruginosa
Description: FIG. 27 is a graph of a comparison checkerboard assay between 96-well plates and microwell array platform. Comparison of checkerboard drug interaction assay in P. aeruginosa for ampicillin and a beta-lactamase inhibitor, sulbactam.

somatostatin receptor 5, sequence (P35346 whole entry): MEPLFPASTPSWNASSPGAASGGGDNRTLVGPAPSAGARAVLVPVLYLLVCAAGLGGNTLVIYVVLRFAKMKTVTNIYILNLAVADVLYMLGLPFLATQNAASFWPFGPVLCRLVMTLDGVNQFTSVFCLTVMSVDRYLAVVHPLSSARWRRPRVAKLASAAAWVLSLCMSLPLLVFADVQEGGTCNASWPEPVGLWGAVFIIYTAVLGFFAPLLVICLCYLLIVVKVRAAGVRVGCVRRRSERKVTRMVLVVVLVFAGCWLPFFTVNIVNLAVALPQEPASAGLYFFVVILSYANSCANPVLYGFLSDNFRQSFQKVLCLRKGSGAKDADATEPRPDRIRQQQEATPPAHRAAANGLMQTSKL
T1 sequence (P42262 25-883 Q607R): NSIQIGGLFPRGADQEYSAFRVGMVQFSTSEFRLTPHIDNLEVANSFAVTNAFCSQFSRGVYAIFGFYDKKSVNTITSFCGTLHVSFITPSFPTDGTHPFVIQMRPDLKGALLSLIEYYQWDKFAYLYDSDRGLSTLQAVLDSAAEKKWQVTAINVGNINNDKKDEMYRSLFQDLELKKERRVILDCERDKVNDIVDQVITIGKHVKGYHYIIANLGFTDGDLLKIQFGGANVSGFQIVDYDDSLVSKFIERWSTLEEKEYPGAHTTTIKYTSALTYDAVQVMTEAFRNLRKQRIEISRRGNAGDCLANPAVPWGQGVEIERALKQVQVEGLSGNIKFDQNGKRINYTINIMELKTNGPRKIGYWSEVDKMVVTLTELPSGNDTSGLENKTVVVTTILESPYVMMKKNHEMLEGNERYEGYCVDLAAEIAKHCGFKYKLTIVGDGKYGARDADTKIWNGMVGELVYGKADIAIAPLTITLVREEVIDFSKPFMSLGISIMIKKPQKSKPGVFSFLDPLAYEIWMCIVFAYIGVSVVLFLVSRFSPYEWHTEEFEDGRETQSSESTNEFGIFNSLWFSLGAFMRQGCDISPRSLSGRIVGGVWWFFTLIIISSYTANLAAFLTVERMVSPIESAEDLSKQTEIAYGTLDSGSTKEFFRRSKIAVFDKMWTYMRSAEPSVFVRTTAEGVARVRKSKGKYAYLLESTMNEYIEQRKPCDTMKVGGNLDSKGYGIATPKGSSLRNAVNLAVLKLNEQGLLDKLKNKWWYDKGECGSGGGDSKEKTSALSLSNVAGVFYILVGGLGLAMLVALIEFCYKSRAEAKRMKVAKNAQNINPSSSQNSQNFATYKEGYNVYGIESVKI

CCn1c2ccccc2c2cc(Nc3ccnc(NCCCN4CCOCC4)n3)ccc21 (racemic) [EHop-016]
more efficient inhibitor of Rac activity than NSC23766 [1]: 100 fold

CCN(CC)CCCC(C)Nc1nc(C)cc(Nc2ccc3nc(C)cc(N)c3c2)n1.Cl.Cl.Cl (racemic) [NSC23766]
Primary screening prediction of synergy with novobiocin ([2]; compound 100 μM x novobiocin, E. coli): synergy predicted
Primary screening prediction of synergy with tetracycline ([2]; E. coli): no synergy predicted

O=C(CNC(=O)c1ccc(Cl)cc1)NO [Benurestat, 2-(para-chlorobenzamide)-acetohydroxamic acid]
Primary screening call with vancomycin ([2]; compound 100 μM x vancomycin, E. coli): screening hit
Primary screening call, pilot phase ([2]; E. coli): hit

Br.Br.NCCCCCNCC12CC3CC(CC(C3)C1)C2 [IEM 1754, 1-ammonio-5-(1-adamantane-methylammoniopentanedibromide)]
Primary screening prediction of synergy with tetracycline ([2]; E. coli): predicted neutral
Primary screening call, pilot phase ([2]; E. coli): hit
times less potent than IEM-1460 ([3]; homomeric GluR1 and GluR3): 3.8 times
potency relative to IEM-1460 [4]: equipotent
times less potent than IEM-1460 [5]: approximately 3 times

C[N+](C)(C)CCCCCNCC12CC3CC(CC(C3)C1)C2 [IEM-1460, 1-trimethylammonio-5-(1-adamantane-methyl-ammoniopentanedibromide)]
IC50 ([3]; holding potential (Vh) of −80 mV, open channel block): 1600 nM
inhibition of responses to 100 microM kainate [6]: 7.8+/−2.4%
IC50 ([4]; Vh=−80 mV): 1.62 mM
IC50 ([5]; Vh=−80 mV): 1600 nM

CCc1cc2c(cc1CC)CC(NC[C@H](O)c1ccc(O)c3[nH]c(=O)ccc13)C2 [Indacaterol]
Primary screening call with erythromycin ([2]; compound 100 μM x erythromycin, E. coli): screening hit
FEV1 (both trough and AUC) compared to placebo [7]: statistically improved
improving FEV1 compared with twice-daily formoterol [8]: significantly more effective
effect on FEV1 compared with tiotropium [9]: no statistical difference
St. George's Respiratory Questionnaire (SGRQ) total score ([9]; vs tiotropium): greater improvements
transition dyspnoea index (TDI) total score ([9]; vs tiotropium): greater improvements

C[C@@H](O)[C@@H]1NC(=O)[C@H](CCCCN)NC(=O)[C@@H](Cc2c[nH]c3ccccc23)NC(=O)[C@H](Cc2ccccc2)NC(=O)[C@@H](NC(=O)[C@H](N)Cc2ccccc2)CSSC[C@@H](C(=O)N[C@H](CO)[C@@H](C)O)NC1=O [Octreotide]
half-life [10]: 90 min

NCCCC[C@@H]1NC(=O)[C@@H](Cc2c[nH]c3ccccc23)NC(=O)[C@H](c2ccccc2)NC(=O)[C@@H]2C[C@@H](OC(=O)NCCN)CN2C(=O)[C@H](Cc2ccccc2)NC(=O)[C@H](Cc2ccc(OCc3ccccc3)cc2)NC1=O [Pasireotide, cyclo[{4-(NH2-C2H4-NH—CO—O-)Pro}-Phg-DTrp-Lys-Tyr(4-Bzl)-Phe]] (cyclo([Hyp]([CO-Ethylenediamine])[Phg][dW]KY(Bn)F))
Interaction between Tedizolid and Pasireotide (relative GFP) [2]: synergistic interaction
increased affinity to somatostatin receptor 5 compared to other somatostatin analogs [11]: 40 fold

Cn1nnc(-c2ccc(-c3ccc(N4C[C@H](CO)OC4=O)cc3F)cn2)n1 [Tedizolid]
Interaction between Tedizolid and Pasireotide (relative GFP) [2]: synergistic interaction

CC[C@H]1OC(=O)[C@H](C)[C@@H](O[C@H]2C[C@@](C)(OC)[C@@H](O)[C@H](C)O2)[C@H](C)[C@@H](O[C@@H]2O[C@H](C)C[C@H](N(C)C)[C@H]2O)[C@](C)(O)C[C@@H](C)C(=O)[C@H](C)[C@@H](O)[C@]1(C)O [erythromycin]
Bliss score with tetracycline ([2]; positive control, expected value, erythromycin 5 μM x tetracycline, E. coli): ~ 0.5

CC1(C)[C@H](C(=O)O)N2C(=O)C[C@H]2S1(=O)=O [sulbactam]
Bliss score with ampicillin ([2]; positive control, expected value, sulbactam 20 μM x ampicillin, E. coli): ~ 1
FIC with ampicillin ([12]; 96-well broth culture): <= 0.5
FIC with ampicillin ([12]; microdroplet platform): <= 0.3125
